# Reference: paper PMC10418599, “Quercetins, Chlorogenic Acids and Their Colon Metabolites Inhibit Colon Cancer Cell Proliferation at Physiologically Relevant Concentrations” (International Journal of Molecular Sciences, 2023)
# Assays:
# [1] = test system: SW480 cell line; test: Cell metabolism of phenolic compounds (UHPLC-HR-MS analysis of cell media); type: in vitro ADME, Human; conditions: for Concentration of substrate in cell medium: initial 50 μmol/L
# Procedure: To analyze the metabolism of phenolic compounds by Caco-2 and SW480 cells, the cell culture media were withdrawn after 0, 24, 48 and 72 h of incubation. Phenolic compounds were extracted from the culture media by following the procedure reported in Sala et al.. Briefly, 100 μL of cold methanol was mixed with 100 μL of cell media and vortexed for 1 min. The mixture was then centrifuged at 10,000× g (4 °C, 5 min) and the supernatant was injected, after appropriate dilution, in an ultra-high-performance liquid chromatography high-resolution mass spectrometry system (UHPLC-HR-MS).
# The HR-MS system consisted of a UHPLC Ultimate 3000 separation module, equipped with a C18 column (Acquity UPLC HSS C18 reversed phase, 2.1 × 100 mm, 1.8 μm particle size, Waters, Milan, Italy) and coupled with a Q Exactive Hybrid Quadrupole-Orbitrap Mass Spectrometer (Thermo Scientific, San Jose, CA, USA). Mobile phases consisted of a mixture of water containing formic acid (0.1%) (mobile phase A) and acetonitrile containing formic acid (0.1%) (mobile phase B). The gradient began at 1% B, reaching 40% B over 20 min. To wash the column, the mobile phase B concentration was raised to 99% over 6 min and kept at 99% for 3 min before returning to the initial conditions. The MS and MS/MS conditions are fully described in Martini et al..
# Quantification was carried out by building external calibration curves with the available standard compounds.
# [2] = test system: SW480 cell line; test: Anti-proliferative assay (MTS cell proliferation assay); type: cell-based, Human; conditions: for IC50: maximum tested concentration 200 μmol/L
# Procedure: Human colon cancer Caco-2 and SW480 cell lines were cultured and grown as previously reported. […] Incubation was carried out for 24, 48 and 72 h. Data were compared with a control solution containing 0.5% DMSO in cell medium and representing 100% proliferation. In addition, six different mixes were prepared to simulate the simultaneous presence of parent phenolic compounds and metabolites by mimicking the possible human inter-individual variability in colon metabolism of phenolic compounds. Two sets of mixes were prepared to consider the colon metabolism of quercetins and chlorogenic acids. […] For each set of mixtures (QUE and CGA mixtures), three different mixes were formulated. One set of mixes mimicked the low-producers metabotype and contained 90% parent compounds and 10% metabolites (mixes QUE-LP and CGA-LP). Another set of mixes was prepared to simulate the high-producers metabotype and contained 10% parent compounds and 90% metabolites (mixes QUE-HP and CGA-HP). Finally, a third set of mixes was prepared with equimolar amounts of all the compounds (mixes QUE-EQ and CGA-EQ). […] Cell proliferation was assessed by the MTS assay as previously described. […] The IC50 values were calculated through non-linear regression analysis by plotting the base-10 logarithm of the phenolic compound concentration vs. the percentage of inhibition.
# [3] = SW480, 24 h, substrate 3,5-di-O-Caffeoylquinic acid 50 μmol/L
# [4] = SW480, 48 h, substrate 3,5-di-O-Caffeoylquinic acid 50 μmol/L
# [5] = SW480, 72 h, substrate 3,5-di-O-Caffeoylquinic acid 50 μmol/L
# [6] = SW480, 24 h, substrate 3-O-Caffeoylquinic acid trans 50 μmol/L
# [7] = SW480, 24 h, substrate 5-O-Caffeoylquinic acid trans 50 μmol/L
# [8] = SW480, 48 h, substrate 5-O-Caffeoylquinic acid trans 50 μmol/L
# [9] = SW480, 72 h, substrate 3-O-Caffeoylquinic acid trans 50 μmol/L
# [10] = SW480, 72 h, substrate 5-O-Caffeoylquinic acid trans 50 μmol/L
# [11] = SW480, 48 h, substrate 3-O-Caffeoylquinic acid trans 50 μmol/L
SMILES,"Concentration of newly formed metabolite [1, 3]","Concentration of newly formed metabolite [1, 4]","Concentration of newly formed metabolite [1, 5]","Concentration of newly formed metabolite [1, 6]","Concentration of newly formed metabolite [1, 7]","Concentration of newly formed metabolite [1, 8]","Concentration of newly formed metabolite [1, 9]","Concentration of newly formed metabolite [1, 10]",further results
"O=C(/C=C/c1ccc(O)c(O)c1)OC1CC(OC(=O)/C=C/c2ccc(O)c(O)c2)(C(=O)O)CC(O)C1O (stereo not drawn) [1,3-di-O-Caffeoylquinic acid]",8.97 ± 0.04 µM,8.87 ± 0.05 µM,10.98 ± 0.02 µM,,,,,,
"O=C(/C=C/c1ccc(O)c(O)c1)OC1C(O)CC(OC(=O)/C=C/c2ccc(O)c(O)c2)(C(=O)O)CC1O (stereo not drawn) [1,4-di-O-Caffeoylquinic acid]",0.91 ± 0.03 µM,0.66 ± 0.03 µM,0.55 ± 0.01 µM,,,,,,
"O=C(/C=C/c1ccc(O)c(O)c1)OC1CC(O)(C(=O)O)CC(O)C1OC(=O)/C=C/c1ccc(O)c(O)c1 (stereo not drawn) [3,4-di-O-Caffeoylquinic acid]",10.12 ± 0.10 µM,8.04 ± 0.14 µM,9.05 ± 0.15 µM,,,,,,
"O=C(/C=C/c1ccc(O)c(O)c1)O[C@@H]1C[C@](O)(C(=O)O)C[C@@H](O)[C@H]1O [3-O-Caffeoylquinic acid cis, 3-O-Caffeoylquinic acid]",,,,4.72 ± 0.04 µM,0.41 ± 0.05 µM,0.36 ± 0.04 µM,3.27 ± 0.17 µM,0.72 ± 0.03 µM,
"O=C(/C=C/c1ccc(O)c(O)c1)O[C@@H]1C[C@](O)(C(=O)O)C[C@@H](O)[C@H]1O [3-O-Caffeoylquinic acid, 3-O-caffeoylquinic acid]",,,,,,,,,"Percentage of inhibition of SW480 growth ([2]; 100 μmol/L, 72 h): 29.6%; IC50 ([2]; SW480, 48 h of incubation): > 200 µM; IC50 ([2]; SW480, 72 h of incubation): > 200 µM; Concentration of substrate in cell medium ([1]; SW480, 24 h, listed as 3-O-Caffeoylquinic acid trans): 23.34 ± 0.07 µM; Concentration of newly formed metabolite ([1]; SW480, 24 h, substrate 3,5-di-O-Caffeoylquinic acid 50 μmol/L, listed as 3-O-Caffeoylquinic acid trans): 0.09 ± 0.01 µM; Concentration of substrate in cell medium ([1]; SW480, 48 h, listed as 3-O-Caffeoylquinic acid trans): 19.54 ± 0.07 µM; Concentration of newly formed metabolite ([1]; SW480, 48 h, substrate 3,5-di-O-Caffeoylquinic acid 50 μmol/L, listed as 3-O-Caffeoylquinic acid trans): 0.13 ± 0.01 µM; Concentration of newly formed metabolite ([1]; SW480, 48 h, substrate 5-O-Caffeoylquinic acid trans 50 μmol/L, listed as 3-O-Caffeoylquinic acid trans): 5.14 ± 0.07 µM; Concentration of substrate in cell medium ([1]; SW480, 72 h, listed as 3-O-Caffeoylquinic acid trans): 19.83 ± 0.05 µM; Concentration of newly formed metabolite ([1]; SW480, 72 h, substrate 5-O-Caffeoylquinic acid trans 50 μmol/L, listed as 3-O-Caffeoylquinic acid trans): 5.55 ± 0.09 µM"
COc1cc(/C=C/C(=O)OC2CC(O)(C(=O)O)CC(O)C2O)ccc1O (stereo not drawn) [3-O-Feruloylquinic acid],,,,0.08 ± 0.00 µM,0.06 ± 0.00 µM,0.07 ± 0.00 µM,0.17 ± 0.00 µM,0.05 ± 0.00 µM,"Concentration of newly formed metabolite [1, 11]: 0.12 ± 0.00 µM"
"O=C(/C=C/c1ccc(O)c(O)c1)O[C@@H]1[C@H](O)C[C@@](O)(C(=O)O)C[C@H]1OC(=O)/C=C/c1ccc(O)c(O)c1 [4,5-di-O-Caffeoylquinic acid]",3.30 ± 0.05 µM,2.20 ± 0.02 µM,1.71 ± 0.03 µM,,,,,,
"O=C(/C=C/c1ccc(O)c(O)c1)OC1[C@H](O)CC(O)(C(=O)O)C[C@H]1O (stereo partly drawn) [4-O-Caffeoylquinic acid trans, 4-O-Caffeoylquinic acid]",0.07 ± 0.01 µM,0.12 ± 0.01 µM,0.25 ± 0.01 µM,6.89 ± 0.06 µM,12.69 ± 0.12 µM,14.80 ± 0.09 µM,12.02 ± 0.24 µM,11.93 ± 0.03 µM,"Concentration of newly formed metabolite [1, 11]: 8.07 ± 0.24 µM"
